The experiment deals with T1, NPY Y2 receptor (Homo sapiens, UniProt P49146).
T1 construct: endogenous in cells; host or cells: KAN-Ts cells (membrane preparation)
T1 sequence (P49146 1-381): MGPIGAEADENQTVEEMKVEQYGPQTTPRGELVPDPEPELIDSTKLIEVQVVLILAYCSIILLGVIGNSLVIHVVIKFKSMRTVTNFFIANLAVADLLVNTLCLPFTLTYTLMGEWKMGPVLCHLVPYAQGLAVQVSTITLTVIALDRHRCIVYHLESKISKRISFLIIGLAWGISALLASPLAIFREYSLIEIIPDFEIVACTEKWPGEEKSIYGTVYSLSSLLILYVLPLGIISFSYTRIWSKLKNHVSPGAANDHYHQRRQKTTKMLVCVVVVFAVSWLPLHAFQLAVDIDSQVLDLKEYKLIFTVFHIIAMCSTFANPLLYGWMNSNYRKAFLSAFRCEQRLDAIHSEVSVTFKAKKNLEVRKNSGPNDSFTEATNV
The experiment in a line: Neuropeptide Y2 radioligand binding assay ([125I]PYY, KAN-Ts cell membranes). The protocol: KAN-Ts endogenously expressing Y2 receptors were used for the radioligand binding assay. Cells were grown to confluence on 150 cm^2 tissue culture plates, washed with phosphate-buffered saline (PBS), and scraped into 50 mL tubes. After centrifugation, the supernatant was aspirated, and the pellets frozen and stored at −80° C. Thawed pellets were homogenized with a polytron tissue grinder for 15 sec in 20 mM Tris-HCl, 5 mM EDTA. The homogenate was centrifuged at 800×g for 5 min and the collected supernatant was recentrifuged at 25000×g for 25 min. The resulting pellet was resuspended in binding buffer (20 mM HEPES, 120 mM NaCl, 0.22 mM KH2PO4, 1.3 mM CaCl2, 0.8 mM MgSO4). Membranes were incubated with [^125I]PYY (80 pM) in the presence or absence of test compound for 1 h at rt. The reaction was stopped by filtration through GF/C filter plates pre-soaked in 0.3% polyethylenimine and subsequently washed with Tris 50 mM, 5 mM EDTA buffer. Plates were dried for 1 h in a 55° C. oven, scintillation fluid was added and the radioactivity was counted in a Packard TopCount. Specific binding to the NPY receptor subtypes was determined by radioactivity that was bound in the presence of […] NPY. Each binding experiment was repeated three to eight times, each in duplicate. IC50 values (i.e. concentration of unlabelled peptide or antagonist required to compete for 50% of specific binding to the radioligand) were determined using the GraphPad Prism software (GraphPad Software Inc., San Diego Calif.) with a fit to a sigmoidal dose response curve. Apparent K values were as K=IC50/(1+C/KD), where C is concentration of the radioligand.

Where [1] appears, read: membranes of KAN-Ts cells endogenously expressing Y2 receptors, [125I]PYY 80 pM, 1 h at rt, read-out: IC50 (μM), NPY Y2 binding.

The values that follow come from patent US20120015957A1, “PIPERAZINYL DERIVATIVES USEFUL AS MODULATORS OF THE NEUROPEPTIDE Y2 RECEPTOR” (priority 2007, published 2012).

Read-outs that look alike come from different tables or passages of the source.

As a reminder, the IC50 is the concentration that inhibits the measured activity by half.

As for `CCN(CC)C(=O)C(c1cc(F)ccc1Br)N1CCN(c2ccc(-c3nc(C)no3)cc2F)CC1` (stereo not drawn) [Compound 209, 2-(2-Bromo-5-fluoro-phenyl)-N,N-diethyl-2-{4-[2-fluoro-4-(3-methyl-[1,2,4]oxadiazol-5-yl)-phenyl]-piperazin-1-yl}-acetamide], the IC50 under setting [1] came to 0.99 µM.
For `CCN(CC)C(=O)C(c1ccc(F)cc1)N1CCN(c2ccc(-c3nc(C)no3)cc2F)CC1` (stereo not drawn) [Compound 210, N,N-Diethyl-2-{4-[2-fluoro-4-(3-methyl-[1,2,4]oxadiazol-5-yl)-phenyl]-piperazin-1-yl}-2-(4-fluoro-phenyl)-acetamide], under setting [1], the IC50 turned out to be 0.29 µM.
Regarding `CCN(CC)C(=O)C(c1cccc(F)c1)N1CCN(c2ccc(-c3nc(C)no3)cc2F)CC1` (stereo not drawn) [Compound 211, N,N-Diethyl-2-{4-[2-fluoro-4-(3-methyl-[1,2,4]oxadiazol-5-yl)-phenyl]-piperazin-1-yl}-2-(3-fluoro-phenyl)-acetamide], the 50% inhibitory concentration (IC50) under setting [1] was 0.083 µM.
Consider `CCN(CC)C(=O)C(c1ccccc1)N1CCN(c2ccc(-c3nnc(C(C)C)[nH]3)cc2F)CC1` (stereo not drawn) [Compound 212, N,N-Diethyl-2-{4-[2-fluoro-4-(5-isopropyl-2H-[1,2,4]triazol-3-yl)-phenyl]-piperazin-1-yl}-2-phenyl-acetamide], for which the 50% inhibitory concentration (IC50) under setting [1] was 0.83 µM.
On to `COC(=O)C(c1ccccc1)N1CCN(c2ccc(-c3nc(C(C)C)no3)cc2F)CC1` (stereo not drawn) [Compound 213, {4-[2-Fluoro-4-(3-isopropyl-[1,2,4]oxadiazol-5-yl)-phenyl]-piperazin-1-yl}-phenyl-acetic acid methyl ester], for which the IC50 under setting [1] came to 0.24 µM.
On to `CCN(CC)C(=O)C(c1ccccc1)N1CCN(c2ccc(-c3ccccc3OC)cc2F)CC1` (stereo not drawn) [Compound 214, N,N-Diethyl-2-[4-(3-fluoro-2′-methoxy-biphenyl-4-yl)-piperazin-1-yl]-2-phenyl-acetamide], for which, under setting [1], the IC50 turned out to be 0.078 µM.
As for `CCN(CC)C(=O)C(c1ccccc1)N1CCN(c2ccc(-c3nc(C)n(C)n3)cc2F)CC1` (stereo not drawn) [Compound 215, 2-{4-[4-(1,5-Dimethyl-1H-[1,2,4]triazol-3-yl)-2-fluoro-phenyl]-piperazin-1-yl}-N,N-diethyl-2-phenyl-acetamide], the half-maximal inhibitory concentration (IC50) under setting [1] was determined as 1.1 µM.
The same measure, in the same setting: as for `CCN(CC)C(=O)C(c1ccccc1)N1CCN(c2ccc(-c3nc(C(C)C)n(C)n3)cc2F)CC1` (stereo not drawn) [Compound 216, N,N-Diethyl-2-{4-[2-fluoro-4-(5-isopropyl-1-methyl-1H-[1,2,4]triazol-3-yl)-phenyl]-piperazin-1-yl}-2-phenyl-acetamide], the figure is 1.95 µM; as for `Cc1noc(-c2ccc(N3CCN(C(C(=O)OC(C)(C)C)c4ccccc4)CC3)c(F)c2)n1` (stereo not drawn) [Compound 219, {4-[2-Fluoro-4-(3-methyl-[1,2,4]oxadiazol-5-yl)-phenyl]-piperazin-1-yl}-phenyl-acetic acid tert-butyl ester], 0.66 µM.
Turning to `CCN(CC)C(=O)C(c1ccccc1)N1CCN(c2ccc(-c3nc(C(C)C)nn3C)cc2F)CC1` (stereo not drawn) [Compound 220, N,N-Diethyl-2-{4-[2-fluoro-4-(5-isopropyl-2-methyl-2H-[1,2,4]triazol-3-yl)-phenyl]-piperazin-1-yl}-2-phenyl-acetamide], the concentration for half-maximal inhibition (IC50) under setting [1] was found to be 1 µM.
`CCN(CC)C(=O)C(c1ccccc1)N1CCN(c2ccc(-c3nc(C(C)C)no3)cc2C(N)=O)CC1` (stereo not drawn) [Compound 221, 2-[4-(Diethylcarbamoyl-phenyl-methyl)-piperazin-1-yl]-5-(3-isopropyl-[1,2,4]oxadiazol-5-yl)-benzamide]: the IC50 under setting [1] is 2.1 µM.
For `CCOC(=O)C(C)(c1ccccc1)N1CCN(c2ccc(-c3nc(C)no3)cc2F)CC1` (stereo not drawn) [Compound 226, 2-{4-[2-Fluoro-4-(3-methyl-[1,2,4]oxadiazol-5-yl)-phenyl]-piperazin-1-yl}-2-phenyl-propionic acid ethyl ester], the IC50 under setting [1] is 1 µM.
As to `CCN(CC)C(=O)C(c1ccc(OC)cc1)N1CCN(c2ccc(-c3nc(C)no3)cc2C#N)CC1` (stereo not drawn) [Compound 250, 2-{4-[2-Cyano-4-(3-methyl-[1,2,4]oxadiazol-5-yl)-phenyl]-piperazin-1-yl}-N,N-diethyl-2-(4-methoxy-phenyl)-acetamide], under setting [1], the IC50 was determined as 0.035 µM.
Take `CCN(CC)C(=O)C(c1ccccc1OC)N1CCN(c2ccc(-c3nc(C)no3)cc2C#N)CC1` (stereo not drawn) [Compound 251, 2-{4-[2-Cyano-4-(3-methyl-[1,2,4]oxadiazol-5-yl)-phenyl]-piperazin-1-yl}-N,N-diethyl-2-(2-methoxy-phenyl)-acetamide]: the IC50 under setting [1] stood at 0.49 µM.
On to `CCN(CC)C(=O)C(c1cccs1)N1CCN(c2ccc(-c3nc(C)no3)cc2C#N)CC1` (stereo not drawn) [Compound 252, 2-{4-[2-Cyano-4-(3-methyl-[1,2,4]oxadiazol-5-yl)-phenyl]-piperazin-1-yl}-N,N-diethyl-2-thiophen-2-yl-acetamide], for which, under setting [1], the half-inhibitory concentration (IC50) was determined as 0.096 µM.
In the case of `CCN(CC)C(=O)C(c1ccccc1)N1CCN(c2ccc(-c3ccccc3C#N)cc2F)CC1` (stereo not drawn) [Compound 253, 2-[4-(2′-Cyano-3-fluoro-biphenyl-4-yl)-piperazin-1-yl]-N,N-diethyl-2-phenyl-acetamide], the half-inhibitory concentration (IC50) under setting [1] worked out at 8.3 µM.
As for `CCN(CC)C(=O)C(c1ccccc1)N1CCN(c2ccc(-c3ccccc3C)cc2F)CC1` (stereo not drawn) [Compound 254, N,N-Diethyl-2-[4-(3-fluoro-2′-methyl-biphenyl-4-yl)-piperazin-1-yl]-2-phenyl-acetamide], the IC50 under setting [1] stood at 1 µM.
`CCN(CC)C(=O)C(c1ccccc1)N1CCN(c2ccc(-c3ccccc3OC)cc2C#N)CC1` (stereo not drawn) [Compound 255, 2-[4-(3-Cyano-2′-methoxy-biphenyl-4-yl)-piperazin-1-yl]-N,N-diethyl-2-phenyl-acetamide]: the concentration for half-maximal inhibition (IC50) under setting [1] was found to be 0.03 µM.
On to `CCN(CC)C(=O)C(c1ccccc1)N1CCN(c2ccc(-c3nc(C(C)C)no3)cc2C=O)CC1` (stereo not drawn) [Compound 256, N,N-Diethyl-2-{4-[2-formyl-4-(3-isopropyl-[1,2,4]oxadiazol-5-yl)-phenyl]-piperazin-1-yl}-2-phenyl-acetamide], for which the half-inhibitory concentration (IC50) under setting [1] worked out at 0.17 µM.
As to `CCN(CC)C(=O)C(c1ccccc1)N1CCN(c2ccc(-c3nc(C(C)C)no3)cc2CO)CC1` (stereo not drawn) [Compound 257, N,N-Diethyl-2-{4-[2-hydroxymethyl-4-(3-isopropyl-[1,2,4]oxadiazol-5-yl)-phenyl]-piperazin-1-yl}-2-phenyl-acetamide], the IC50 under setting [1] was determined as 0.34 µM.
On to `CCN(CC)C(=O)C(c1ccccc1)N1CCN(c2ccc(-c3nc(C(C)C)no3)cc2CNC)CC1` (stereo not drawn) [Compound 258, N,N-Diethyl-2-{4-[4-(3-isopropyl-[1,2,4]oxadiazol-5-yl)-2-methylaminomethyl-phenyl]-piperazin-1-yl}-2-phenyl-acetamide], for which the IC50 under setting [1] turned out to be 1.8 µM.
Regarding `CCN(CC)C(=O)C(c1ccccc1)N1CCN(c2ccc(-c3nc(C(C)C)no3)cc2CN(C)C)CC1` (stereo not drawn) [Compound 259, 2-{4-[2-Dimethylaminomethyl-4-(3-isopropyl-[1,2,4]oxadiazol-5-yl)-phenyl]-piperazin-1-yl}-N,N-diethyl-2-phenyl-acetamide], the IC50 under setting [1] was 2.4 µM.
The same measure, in the same setting: the value for `CCN(CC)C(=O)C(c1ccccc1)N1CCN(c2ccc(-c3nc(C(C)C)no3)cc2COC)CC1` (stereo not drawn) [Compound 260, N,N-Diethyl-2-{4-[4-(3-isopropyl-[1,2,4]oxadiazol-5-yl)-2-methoxymethyl-phenyl]-piperazin-1-yl}-2-phenyl-acetamide] was 0.98 µM.
As to `CCNC(=O)C(c1ccccc1)N1CCN(c2ccc(-c3nc(C)no3)cc2C#N)CC1` (stereo not drawn) [Compound 261, 2-{4-[2-Cyano-4-(3-methyl-[1,2,4]oxadiazol-5-yl)-phenyl]-piperazin-1-yl}-N-ethyl-2-phenyl-acetamide], the IC50 under setting [1] worked out at 0.41 µM.
In the case of `CCN(CC)C(=O)C(c1ccc(F)cc1)N1CCN(c2ccc(-c3nc(C)no3)cc2C#N)CC1` (stereo not drawn) [Compound 262, 2-{4-[2-Cyano-4-(3-methyl-[1,2,4]oxadiazol-5-yl)-phenyl]-piperazin-1-yl}-N,N-diethyl-2-(4-fluoro-phenyl)-acetamide], under setting [1], the half-inhibitory concentration (IC50) was 0.098 µM.
As to `CCNC(=O)C(c1ccccc1)N1CCN(c2ccc(-c3nc(C(C)C)no3)cc2C#N)CC1` (stereo not drawn) [Compound 270], the half-inhibitory concentration (IC50) came to 0.062 µM.
`CCN(CC)C(=O)C(c1ccccc1)N1CCN(c2ccc(-c3nc(C)ns3)cc2F)CC1` (stereo not drawn) [Compound 271, N,N-Diethyl-2-{4-[2-fluoro-4-(3-methyl-[1,2,4]thiadiazol-5-yl)-phenyl]-piperazin-1-yl}-2-phenyl-acetamide]: the 50% inhibitory concentration (IC50) under setting [1] worked out at 0.11 µM.
